Assay [1] has as its target T1, Human secretory PLA2 (Homo sapiens, UniProt P14555).
T1 sequence (P14555 21-144): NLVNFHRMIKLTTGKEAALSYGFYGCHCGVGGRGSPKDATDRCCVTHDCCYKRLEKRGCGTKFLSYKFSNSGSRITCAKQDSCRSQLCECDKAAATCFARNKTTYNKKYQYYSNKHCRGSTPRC
The assay can be described thus: Secretory PLA2 inhibitory activity (diheptanoyl thio PC substrate, absorbance at 405 nm). It is filed as biochemical. As to conditions: diheptanoyl thio PC 1 mM, Triton X100 0.3 mM, pH 7.3, CaCl2 10 mM, 30 minutes, read-out: s-PLA2 Inhibition IC50. The gist of the method: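 Diheptanoyl thio-PC (1 mM) with Triton X100 (0.3 mM) and DTNB (125 μM) in Tris 25 mM pH 7.3, CaCl2 10 mM, KCl 100 mM, BSA 1.0 mg/ml. Absorbance change at 405 nm read at 30 min; percent inhibition corrected for no-enzyme blanks, IC50 from log-concentration plot.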

Assay [2] deals with adjuvant arthritis. The assay can be described thus: Adjuvant arthritis in rats (Mycobacterium butyricum), foot edema volume. It is filed as in vivo, Crj/LEW male rat. As to conditions: rat, 10 mg/kg P.O. daily, 17-18 days after adjuvant; *P < 0.05 (Examples 1, 69), **P < 0.01 (Examples 2, 23, 25) to vehicle control; Example 29 unmarked. How it is done:
Adjuvant arthritis was induced by subcutaneously administering a suspension of 0.5 mg of Mycobacterium butyricum (Difco) in 0.05 ml of liquid paraffin to the pad of left foot of Crj/LEW male rat of 7-8 weeks age weighing 150-170 g. After administering the adjuvant, the volume of edema of both feet was daily measured by a plethysmometer. The adjuvant had been administered, and since the following day, a suspension of the test compound in 0.6% arabic gum was orally administered every day, and 17-18 days after administering the adjuvant, the volume of edema of the foot and that of foot to which no adjuvant had been administered were compared with each other. Volume of the edema in control group was defined as 100%, which value was obtained by subtracting the volume of foot of normal rat (1.2 ml) from the volume measured, and inhibitory percent obtained by using the inhibitor was defined as inhibitory rate. Using the inhibitory rate, effectiveness was determined by Student's-t assay.

For assay [3], the target named is T2, intracellular PLA2 (cytosolic PLA2, cPLA2) (Homo sapiens, UniProt P47712).
T2 sequence (P47712 1-749): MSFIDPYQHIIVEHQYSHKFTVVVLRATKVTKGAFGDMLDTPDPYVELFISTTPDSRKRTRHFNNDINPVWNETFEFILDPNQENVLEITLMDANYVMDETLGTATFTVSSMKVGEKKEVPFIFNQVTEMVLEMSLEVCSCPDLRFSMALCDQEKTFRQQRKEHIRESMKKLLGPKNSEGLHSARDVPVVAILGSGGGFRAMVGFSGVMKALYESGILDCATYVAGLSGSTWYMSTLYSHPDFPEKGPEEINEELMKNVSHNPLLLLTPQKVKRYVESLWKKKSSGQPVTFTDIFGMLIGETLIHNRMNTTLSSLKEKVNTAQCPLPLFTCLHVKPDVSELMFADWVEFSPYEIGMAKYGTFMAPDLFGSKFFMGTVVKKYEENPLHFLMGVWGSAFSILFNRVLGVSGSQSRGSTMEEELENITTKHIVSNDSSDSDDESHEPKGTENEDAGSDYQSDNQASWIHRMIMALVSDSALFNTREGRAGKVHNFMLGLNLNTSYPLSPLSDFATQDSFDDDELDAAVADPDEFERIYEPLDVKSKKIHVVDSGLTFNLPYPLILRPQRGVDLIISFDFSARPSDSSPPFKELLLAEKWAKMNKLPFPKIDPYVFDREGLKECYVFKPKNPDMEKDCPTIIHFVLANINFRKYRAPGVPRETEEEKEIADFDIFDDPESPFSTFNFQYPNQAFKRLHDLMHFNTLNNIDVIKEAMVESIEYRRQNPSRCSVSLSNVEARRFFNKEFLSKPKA
Put plainly: Intracellular PLA2 (cPLA2) inhibitory activity (14C-arachidonyl phosphatidylcholine substrate). The format is biochemical. As to conditions: 2 μM radiolabelled phosphatidylcholine, 1 μM dioleoylglycerol, 1 mM CaCl2, pH 7.4; read-out: c-PLA2 Inhibition IC50. The gist of the method:
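Sonicated vesicles carrying 2 μM 1-palmitoyl-2-[14C]arachidonyl-phosphatidylcholine with 1 μM dioleoylglycerol served as substrate. Buffer: 50 mM Hepes pH 7.4, 150 mM NaCl, 1 mM CaCl2, 2 mM DTT, 0.1 mg/ml BSA. IC50 values were derived.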

As a reminder, the pIC50 is −log10 of the IC50, conventionally taken in molar units.

The structures appear in SMILES notation. pIC50: −log10 of the molar value.

`COc1c(C)c(OC(=O)c2c(C)c(C)c(OCCCN3CCN(c4ccc(F)cc4)CC3)c(C)c2OC)c(C)c(C)c1C(=O)O` [Example 69, 4-{4-[3-(4-(4-Fluorophenyl)piperazin-1-yl)propoxy]-2-methoxy-3,5,6-trimethylbenzoyloxy}-2-methoxy-3,5,6-trimethylbenzoic Acid]: the pIC50 in assay [1] was 4.92; in assay [3], 4.44. Further, the “Inhibition % (To Nontreated Foot), edema volume” value in assay [2] amounted to 24.6%.

Source of the values: patent US5534533A, “Carboxylate derivatives exhibiting phospholipase A2 inhibitory activity” (Shionogi & Co., Ltd., priority 1993, dated 1996).
